Results: patent US6423689B1, “Peptidyl calcium channel blockers” (Warner-Lambert Company, priority 1997, dated 2002)

Target: T1, N-type Ca2+ channels in IMR-32 cells (Homo sapiens, UniProt Q00975)
T1 construct: host or cells: IMR-32 cells, differentiated with dibutyryl cAMP and bromodeoxyuridine
Test: Inhibition of N-type calcium flux in IMR-32 cells (Indo-1 fluorescence, nitrendipine present)
Format: cell-based
Conditions: for inhibition at 1 µM / inhibition at 10 µM: IMR-32; for IC50: IMR-32 cells, 5 μM nitrendipine, K+ depolarization
Procedure, shortened: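 Differentiated IMR-32 cells (7–13 days) were loaded with 5 μM Indo-1 AM, preincubated with compound for 10 min at 30° C, and depolarized with KCl/CaCl2 stimulation solution, with 5 μM nitrendipine blocking L-channels. Peak-minus-basal 400/490 nm emission ratio was plotted against drug concentration, and IC50 came from four-parameter logistic fits.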

T1 sequence (Q00975 whole entry): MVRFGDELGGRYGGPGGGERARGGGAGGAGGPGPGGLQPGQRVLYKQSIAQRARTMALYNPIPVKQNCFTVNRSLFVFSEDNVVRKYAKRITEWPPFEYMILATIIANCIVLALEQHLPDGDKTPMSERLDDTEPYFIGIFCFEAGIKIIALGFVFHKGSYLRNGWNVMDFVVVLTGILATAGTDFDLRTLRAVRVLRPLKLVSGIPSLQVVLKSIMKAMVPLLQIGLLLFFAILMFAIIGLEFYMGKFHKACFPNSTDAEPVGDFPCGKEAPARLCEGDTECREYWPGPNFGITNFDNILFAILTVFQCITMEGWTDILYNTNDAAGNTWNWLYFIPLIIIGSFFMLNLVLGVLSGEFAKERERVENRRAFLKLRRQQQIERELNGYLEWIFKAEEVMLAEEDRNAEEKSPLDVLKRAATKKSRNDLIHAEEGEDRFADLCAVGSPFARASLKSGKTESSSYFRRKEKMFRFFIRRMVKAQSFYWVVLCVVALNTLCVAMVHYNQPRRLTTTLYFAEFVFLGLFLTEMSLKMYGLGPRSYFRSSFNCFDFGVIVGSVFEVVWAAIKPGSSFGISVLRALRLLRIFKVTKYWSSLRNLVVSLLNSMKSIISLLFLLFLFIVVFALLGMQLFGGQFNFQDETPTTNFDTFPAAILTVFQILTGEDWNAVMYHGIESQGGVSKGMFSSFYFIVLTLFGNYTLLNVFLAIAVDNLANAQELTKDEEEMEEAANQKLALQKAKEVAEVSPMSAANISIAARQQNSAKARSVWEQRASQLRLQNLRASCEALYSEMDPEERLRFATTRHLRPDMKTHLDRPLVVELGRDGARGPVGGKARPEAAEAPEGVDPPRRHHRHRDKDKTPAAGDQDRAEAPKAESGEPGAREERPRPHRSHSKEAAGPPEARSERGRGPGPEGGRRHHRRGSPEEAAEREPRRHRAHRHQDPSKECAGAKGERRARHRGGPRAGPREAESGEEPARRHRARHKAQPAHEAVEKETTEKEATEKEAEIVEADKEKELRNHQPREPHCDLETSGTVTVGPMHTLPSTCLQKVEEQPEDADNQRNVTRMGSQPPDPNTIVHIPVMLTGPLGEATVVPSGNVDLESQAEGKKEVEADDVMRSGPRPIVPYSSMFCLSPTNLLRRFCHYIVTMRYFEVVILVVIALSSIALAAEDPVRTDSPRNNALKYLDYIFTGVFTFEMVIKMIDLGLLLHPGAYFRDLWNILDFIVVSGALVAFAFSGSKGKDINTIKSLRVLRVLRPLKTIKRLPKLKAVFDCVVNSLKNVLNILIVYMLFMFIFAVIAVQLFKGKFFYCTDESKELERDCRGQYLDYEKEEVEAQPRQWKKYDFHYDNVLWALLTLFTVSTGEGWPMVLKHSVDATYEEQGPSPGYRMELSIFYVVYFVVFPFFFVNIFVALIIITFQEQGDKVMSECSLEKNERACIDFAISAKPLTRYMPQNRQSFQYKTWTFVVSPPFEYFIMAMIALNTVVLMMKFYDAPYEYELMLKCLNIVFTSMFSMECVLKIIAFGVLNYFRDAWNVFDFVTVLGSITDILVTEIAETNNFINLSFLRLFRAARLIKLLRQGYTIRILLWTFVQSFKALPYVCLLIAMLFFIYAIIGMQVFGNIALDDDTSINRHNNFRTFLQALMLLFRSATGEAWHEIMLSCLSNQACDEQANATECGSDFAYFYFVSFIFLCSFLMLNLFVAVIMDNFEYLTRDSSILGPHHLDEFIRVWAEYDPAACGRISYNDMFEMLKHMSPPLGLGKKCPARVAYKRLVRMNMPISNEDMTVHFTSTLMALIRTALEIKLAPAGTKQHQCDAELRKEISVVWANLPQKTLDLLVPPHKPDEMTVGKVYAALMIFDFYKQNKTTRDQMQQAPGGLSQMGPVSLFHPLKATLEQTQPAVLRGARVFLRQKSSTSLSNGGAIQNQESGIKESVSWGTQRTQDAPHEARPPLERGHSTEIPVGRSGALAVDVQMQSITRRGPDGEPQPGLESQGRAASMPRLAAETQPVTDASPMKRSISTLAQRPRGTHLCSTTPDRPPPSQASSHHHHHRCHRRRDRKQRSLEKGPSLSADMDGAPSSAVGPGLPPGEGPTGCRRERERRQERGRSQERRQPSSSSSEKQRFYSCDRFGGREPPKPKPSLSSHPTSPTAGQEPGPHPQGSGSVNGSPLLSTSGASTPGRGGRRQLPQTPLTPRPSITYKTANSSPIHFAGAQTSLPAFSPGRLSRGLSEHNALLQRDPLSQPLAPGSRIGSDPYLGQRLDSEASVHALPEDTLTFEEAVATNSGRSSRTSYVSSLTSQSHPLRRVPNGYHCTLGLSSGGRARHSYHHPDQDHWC
T1 sequence (P54289 25-956 partner limits assumed): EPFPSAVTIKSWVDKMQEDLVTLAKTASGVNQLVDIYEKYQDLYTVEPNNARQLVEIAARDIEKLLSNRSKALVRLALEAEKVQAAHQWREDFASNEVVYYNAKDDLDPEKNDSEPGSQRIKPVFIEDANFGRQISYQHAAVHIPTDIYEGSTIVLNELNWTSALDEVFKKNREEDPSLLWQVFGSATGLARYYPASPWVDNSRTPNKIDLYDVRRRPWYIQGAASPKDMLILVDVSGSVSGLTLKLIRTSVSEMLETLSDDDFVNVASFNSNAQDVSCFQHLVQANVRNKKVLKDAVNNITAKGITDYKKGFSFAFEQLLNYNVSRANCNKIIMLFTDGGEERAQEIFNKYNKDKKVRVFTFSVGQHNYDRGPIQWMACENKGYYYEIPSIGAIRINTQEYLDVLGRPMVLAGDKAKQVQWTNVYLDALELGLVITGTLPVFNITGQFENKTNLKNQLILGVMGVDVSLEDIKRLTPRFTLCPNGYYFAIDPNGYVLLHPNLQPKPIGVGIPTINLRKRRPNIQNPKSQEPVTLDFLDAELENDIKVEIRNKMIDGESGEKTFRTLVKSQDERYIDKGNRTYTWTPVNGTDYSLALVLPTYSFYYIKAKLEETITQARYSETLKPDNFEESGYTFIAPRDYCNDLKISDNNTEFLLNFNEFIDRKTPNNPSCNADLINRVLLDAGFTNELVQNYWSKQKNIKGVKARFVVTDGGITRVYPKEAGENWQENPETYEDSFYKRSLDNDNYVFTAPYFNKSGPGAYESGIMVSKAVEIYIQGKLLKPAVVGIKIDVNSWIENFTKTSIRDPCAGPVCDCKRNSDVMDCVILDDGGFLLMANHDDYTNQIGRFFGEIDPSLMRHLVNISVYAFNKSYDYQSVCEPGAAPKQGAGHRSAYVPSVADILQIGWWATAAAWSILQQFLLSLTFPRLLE
T1 sequence (P54289 957-1103 partner limits assumed): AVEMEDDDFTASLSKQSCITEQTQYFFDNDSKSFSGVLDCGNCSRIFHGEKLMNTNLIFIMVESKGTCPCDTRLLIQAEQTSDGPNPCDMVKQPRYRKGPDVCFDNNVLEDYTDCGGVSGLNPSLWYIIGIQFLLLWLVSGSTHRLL
T1 sequence (P54284 whole entry partner): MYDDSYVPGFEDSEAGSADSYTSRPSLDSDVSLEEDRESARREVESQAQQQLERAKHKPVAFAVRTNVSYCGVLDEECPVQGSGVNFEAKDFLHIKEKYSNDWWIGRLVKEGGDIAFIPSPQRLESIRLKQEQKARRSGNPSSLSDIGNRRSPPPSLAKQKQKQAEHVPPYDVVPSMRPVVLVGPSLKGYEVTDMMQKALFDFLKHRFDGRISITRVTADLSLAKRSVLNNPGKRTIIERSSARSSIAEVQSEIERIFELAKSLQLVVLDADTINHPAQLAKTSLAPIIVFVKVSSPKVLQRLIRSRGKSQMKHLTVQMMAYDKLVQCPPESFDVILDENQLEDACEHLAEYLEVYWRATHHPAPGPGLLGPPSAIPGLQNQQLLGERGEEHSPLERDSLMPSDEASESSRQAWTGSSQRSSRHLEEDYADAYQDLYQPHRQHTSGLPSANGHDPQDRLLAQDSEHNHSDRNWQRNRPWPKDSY

Compound | inhibition at 1 µM | inhibition at 10 µM | IC50
CC(C)C[C@H](NC(=O)N1CCCCCC1)C(=O)N[C@@H](Cc1ccc(OCc2ccccc2)cc1)C(=O)NCc1ccncc1 [Example 178, [S-(R*,R*)]-Azepane-1-carboxylic acid (1-{2-(4-benzyloxy-phenyl)-1-[(pyridin-4-ylmethyl)carbamoyl]-ethylcarbamoyl}-3-methyl-butyl)-amide] | – | – | 3100 nM
CC(C)C[C@H](NC(=O)N1CCCCCC1)C(=O)N[C@@H](Cc1ccc(OCc2ccccc2)cc1)C(=O)N1CCC[C@H]1CN1CCCC1 [Example 179, Azepane-1-carboxylic acid {(S)-1-[(S)-1-(4-benzyloxy-benzyl)-2-oxo-2-[(S)-2-pyrrolidin-1-ylmethyl-pyrrolidin-1-yl]-ethylcarbamoyl]-3-methyl-butyl}-amide] | – | – | 1400 nM
CC(C)C[C@H](NC(=O)N1CCCCCC1)C(=O)N[C@@H](Cc1ccc(OCc2ccccc2)cc1)C(=O)NCCCN1CCN(C)CC1 [Example 187, [S-(R*,R*)]-Azepane-1-carboxylic acid (1-{2-(4-benzyloxy-phenyl)-1-[3-(4-methyl-piperazin-1-yl)-propylcarbamoyl]-ethylcarbamoyl}-3-methyl-butyl)-amide] | 20% | 77% | 4000 nM
CCN(CC)C(=O)C1CCCN(C(=O)C(Cc2ccc(OCc3ccccc3)cc2)NC(=O)C(CC(C)C)NC(=O)N2CCCCCC2)C1 (stereo not shown) [Example 188, Azepane-1-carboxylic acid {1-[1-(4-benzyloxy-benzyl)-2-(3-diethylcarbamoyl-piperidin-1-yl)-2-oxo-ethylcarbamoyl]-3-methyl-butyl}-amide] | – | – | 780 nM
CCCN1CCCC(NC(=O)C(Cc2ccc(OCc3ccccc3)cc2)NC(=O)C(CC(C)C)NC(=O)N2CCCCCC2)C1 (stereo not shown) [Example 195, Azepane-1-carboxylic acid {1-[2-(4-benzyloxy-phenyl)-1-(1-propyl-piperidin-3-ylcarbamoyl)-ethylcarbamoyl]-3-methyl-butyl}-amide] | – | – | 580 nM
CC(C)CC(NC(=O)N1CCCCCC1)C(=O)NC(Cc1ccc(OCc2ccccc2)cc1)C(=O)NC1CCCN(C)C1c1ccccc1 (stereo not shown) [Example 197, Azepane-1-carboxylic acid {1-[2-(4-benzyloxy-phenyl)-1-(1-methyl-2-phenyl-piperidin-3-ylcarbamoyl)-ethylcarbamoyl]-3-methyl-butyl}-amide] | – | – | 220 nM
CC(C)CC(NC(=O)N1CCCCCC1)C(=O)NC(Cc1ccc(OCc2ccccc2)cc1)C(=O)NC1CCCN(CC(C)C)C1 (stereo not shown) [Example 198, Azepane-1-carboxylic acid {1-[2-(4-benzyloxy-phenyl)-1-(1-isobutyl-piperidin-3-ylcarbamoyl)-ethylcarbamoyl]-3-methyl-butyl}-amide] | – | – | 360 nM
CC(C)C[C@H](NC(=O)N1CCCCCC1)C(=O)N[C@@H](Cc1ccc(OCc2ccccc2)cc1)C(=O)N1CC(C)OC(C)C1 (stereo partly drawn) [Example 199, [S-(R*,R*)]-Azepane-1-carboxylic acid {1-[1-(4-benzyloxy-benzyl)-2-(2,6-dimethyl-morpholin-4-yl)-2-oxo-ethylcarbamoyl]-3-methyl-butyl}-amide] | 36% | 86% | 1800 nM

Further lines, results first:

inhibition at 1 µM | inhibition at 10 µM | IC50 | Compound
38% | 86% | 1400 nM | CC(C)C[C@H](NC(=O)N1CCCCCC1)C(=O)N[C@@H](Cc1ccc(OCc2ccccc2)cc1)C(=O)N1CCN(C)CC1 [Example 176, [S-(R*,R*)]-Azepane-1-carboxylic acid {1-[1-(4-benzyloxy-benzyl)-2-(4-methyl-piperazin-1-yl)-2-oxo-ethylcarbamoyl]-3-methyl-butyl}-amide]
– | – | 2800 nM | CC(C)C[C@H](NC(=O)N1CCCCCC1)C(=O)N[C@@H](Cc1ccc(OCc2ccccc2)cc1)C(=O)NCCN1CCCC1 [Example 181, [S-(R*,R*)]-Azepane-1-carboxylic acid {1-[2-(4-benzyloxy-phenyl)-1-(2-pyrrolidin-1-ylethylcarbamoyl)-ethylcarbamoyl]3-methyl-butyl}-amide]
– | – | 7700 nM | CC(C)C[C@H](NC(=O)N1CCCCCC1)C(=O)NC(Cc1ccc(OCc2ccccc2)cc1)C(=O)N[C@@H]1CN2CCC1CC2 (stereo partly drawn) [Example 182, Azepane-1-carboxylic acid {(S)-1-[-1-[(S)-1-aza-bicyclo [2.2.2]-3-ylcarbamoyl]-2-(4-benzyloxy-phenyl)-ethylcarbamoyl]-3-methyl-butyl}-amide]
– | – | 2300 nM | CC(C)C[C@H](NC(=O)N1CCCCCC1)C(=O)N[C@@H](Cc1ccc(OCc2ccccc2)cc1)C(=O)N1CCC(N2CCCCC2)CC1 [Example 185, [S-(R*,R*)]-Azepane-1-carboxylic acid {1-[1-(4-benzyloxy-benzyl)-2-[1,4′]bipiperidinyl-1′-yl-2-oxo-ethylcarbamoyl]-3-methyl-butyl}-amide]
– | – | 940 nM | CCN(CC)C(=O)C1CCCN(C(=O)C(Cc2ccc(OCc3ccccc3)cc2)NC(=O)C(CC(C)C)NC(=O)N2CCCCCC2)C1 (stereo not shown) [Example 189, Azepane-1-carboxylic acid {1-[1-(4-benzyloxy-benzyl)-2-(3-diethylcarbamoyl-piperidin-1-yl)-2-oxo-ethylcarbamoyl]-3-methyl-butyl}-amide]
– | – | 790 nM | CC(C)CC(NC(=O)N1CCCCCC1)C(=O)NC(Cc1ccc(OCc2ccccc2)cc1)C(=O)NCC(O)c1ccccc1 (stereo not shown) [Example 190, Azepane-1-carboxylic acid {1-[2-(4-benzyloxy-phenyl)-1-(2-hydroxy-2phenyl-ethylcarbamoyl)-ethylcarbamoyl]-3-methyl-butyl}-amide]
– | – | 3200 nM | CC(C)CC(NC(=O)N1CCCCCC1)C(=O)NC(Cc1ccc(OCc2ccccc2)cc1)C(=O)NCCC1CCCN1C (stereo not shown) [Example 193, Azepane-1-carboxylic acid (1-{2-(4-benzyloxy-phenyl)-1-[2-(1-methyl-pyrrolidin-2-yl)-ethylcarbamoyl]-ethylcarbamoyl}-3-methyl-butyl)-amide]
– | – | 700 nM | CC(C)CC(NC(=O)N1CCCCCC1)C(=O)NC(Cc1ccc(OCc2ccccc2)cc1)C(=O)NCCCN1CCCCC1C (stereo not shown) [Example 196, Azepane-1-carboxylic acid (1-{2-(4-benzyloxy-phenyl)-1-[3-(2-methyl-piperidin-1-yl)-propylcarbamoyl]-ethylcarbamoyl}-3-methyl-butyl)-amide]
53% | 88% | 900 nM | CC(C)CC(NC(=O)N1CCCCCC1)C(=O)NC(Cc1ccc(OCc2ccccc2)cc1)C(=O)N1CCCC(C)C1 (stereo not shown) [Example 200, Azepane-1-carboxylic acid {1-[1-(4-benzyloxy-benzyl)-2-(3-methyl-piperidin-1-yl)-2-oxo-ethylcarbamoyl]-3-methyl-butyl}-amide]
29% | 81% | 2400 nM | CC(C)C[C@H](NC(=O)N1CCCCCC1)C(=O)N[C@@H](Cc1ccc(OCc2ccccc2)cc1)C(=O)N1CCc2ccccc2C1 [Example 201, [S-(R*,R*)]-Azepane-1-carboxylic acid {1-[1-(4-benzyloxy-benzyl)-2-(3,4-dihydro-1H-isoquinolin-2-yl)-2-oxo-ethylcarbamoyl]-3-methyl-butyl}-amide]
